# What was measured:
# CCRF-CEM = test: Growth inhibition of human CCRF-CEM cells assessed as cell growth at 10 uM by sulforhodamine B assay relative to control; assay type: functional; conditions: values are per cent of control
# SF-268 = test: Growth inhibition of human SF268 cells assessed as cell growth at 10 uM by sulforhodamine B assay relative to control; values are per cent of control
# IGROV-1 = test: Growth inhibition of human IGROV1 cells assessed as cell growth at 10 uM by sulforhodamine B assay relative to control; values are per cent of control
# LOX IMVI = test: Growth inhibition of human LOXIMVI cells assessed as cell growth at 10 uM by sulforhodamine B assay relative to control; values are per cent of control
# UACC-62 = test: Growth inhibition of human UACC62 cells assessed as cell growth at 10 uM by sulforhodamine B assay relative to control; values are per cent of control
# Malme-3M = test: Growth inhibition of human MALME-3M cells assessed as cell growth at 10 uM by sulforhodamine B assay relative to control; values are per cent of control
# KM12 = test: Growth inhibition of human KM12 cells assessed as cell growth at 10 uM by sulforhodamine B assay relative to control; values are per cent of control
# [1] = Growth inhibition of human OVCAR5 cells assessed as cell growth at 10 uM by sulforhodamine B assay relative to control; values are per cent of control; conditions: OVCAR-5
# [2] = Growth inhibition of human RXF393 cells assessed as cell growth at 10 uM by sulforhodamine B assay relative to control; values are per cent of control; conditions: RXF 393
# MCF7 = test: Growth inhibition of human MCF7 cells assessed as cell growth at 10 uM by sulforhodamine B assay relative to control; values are per cent of control
# T47D = test: Growth inhibition of human T47D cells assessed as cell growth at 10 uM by sulforhodamine B assay relative to control; values are per cent of control
# MDA-MB-231 = test: Growth inhibition of human MDA-MB-231 cells assessed as cell growth at 10 uM by sulforhodamine B assay relative to control; values are per cent of control
# COLO 205 = test: Growth inhibition of human COLO205 cells assessed as cell growth at 10 uM by sulforhodamine B assay relative to control; values are per cent of control
# [3] = Growth inhibition of human UACC257 cells assessed as cell growth at 10 uM by sulforhodamine B assay relative to control; values are per cent of control; conditions: UACC-257
# 786-0 = test: Growth inhibition of human 786-0 cells assessed as cell growth at 10 uM by sulforhodamine B assay relative to control; values are per cent of control
# SK-MEL-5 = test: Growth inhibition of human SK-MEL-5 cells assessed as cell growth at 10 uM by sulforhodamine B assay relative to control; values are per cent of control
# HCT-15 = test: Growth inhibition of human HCT15 cells assessed as cell growth at 10 uM by sulforhodamine B assay relative to control; values are per cent of control
# OVCAR-8 = test: Growth inhibition of human OVCAR8 cells assessed as cell growth at 10 uM by sulforhodamine B assay relative to control; values are per cent of control
# NCI-H460 = test: Growth inhibition of human NCI-H460 cells assessed as cell growth at 10 uM by sulforhodamine B assay relative to control; values are per cent of control
# PC-3 = test: Growth inhibition of human PC3 cells assessed as cell growth at 10 uM by sulforhodamine B assay relative to control; values are per cent of control
# [4] = Growth inhibition of human SF539 cells assessed as cell growth at 10 uM by sulforhodamine B assay relative to control; values are per cent of control; conditions: SF-539
# SNB-75 = test: Growth inhibition of human SNB75 cells assessed as cell growth at 10 uM by sulforhodamine B assay relative to control; values are per cent of control
# NCI-H322M = test: Growth inhibition of human NCI-H322M cells assessed as cell growth at 10 uM by sulforhodamine B assay relative to control; values are per cent of control
# RPMI-8226 = test: Growth inhibition of human RPMI8226 cells assessed as cell growth at 10 uM by sulforhodamine B assay relative to control; values are per cent of control
# HL-60(TB) = test: Growth inhibition of human HL-60(TB) cells assessed as cell growth at 10 uM by sulforhodamine B assay relative to control; assay type: functional; conditions: values are per cent of control
# HOP-62 = test: Growth inhibition of human HOP62 cells assessed as cell growth at 10 uM by sulforhodamine B assay relative to control; values are per cent of control
# [5] = Growth inhibition of human OVCAR4 cells assessed as cell growth at 10 uM by sulforhodamine B assay relative to control; values are per cent of control; conditions: OVCAR-4
# DU-145 = test: Growth inhibition of human DU145 cells assessed as cell growth at 10 uM by sulforhodamine B assay relative to control; values are per cent of control
# MDA-MB-468 = test: Growth inhibition of human MDA-MB-468 cells assessed as cell growth at 10 uM by sulforhodamine B assay relative to control; values are per cent of control
# K562 = test: Growth inhibition of human K562 cells assessed as cell growth at 10 uM by sulforhodamine B assay relative to control; values are per cent of control
# [6] = Growth inhibition of human HOP92 cells assessed as cell growth at 10 uM by sulforhodamine B assay relative to control; values are per cent of control; conditions: HOP-92
SMILES,"growth, % of control at 10 µM (CCRF-CEM) [%]","growth, % of control at 10 µM (SF-268) [%]","growth, % of control at 10 µM (LOX IMVI) [%]","growth, % of control at 10 µM (UACC-62) [%]","growth, % of control at 10 µM (Malme-3M) [%]","growth, % of control at 10 µM (KM12) [%]","growth, % of control at 10 µM [1] [%]","growth, % of control at 10 µM [2] [%]","growth, % of control at 10 µM (MCF7) [%]","growth, % of control at 10 µM (T47D) [%]","growth, % of control at 10 µM (MDA-MB-231) [%]","growth, % of control at 10 µM (COLO 205) [%]","growth, % of control at 10 µM [3] [%]","growth, % of control at 10 µM (786-0) [%]","growth, % of control at 10 µM (SK-MEL-5) [%]","growth, % of control at 10 µM (HCT-15) [%]","growth, % of control at 10 µM (OVCAR-8) [%]","growth, % of control at 10 µM (NCI-H460) [%]","growth, % of control at 10 µM (PC-3) [%]","growth, % of control at 10 µM [4] [%]",also measured
COc1ccc(C(=O)/C=C/c2ccc(/C=C/c3cc(OC)c(OC)c(OC)c3)cc2)cc1,19.6,66.2,24.7,53.6,66.8,29.2,117,71.3,30.6,43.4,76.8,68.2,72.5,67.8,62,33.6,28.4,59.6,52.2,86.3,"growth, % of control at 10 µM (IGROV-1): 6.66%; growth, % of control at 10 µM (SNB-75): 59.8%; growth, % of control at 10 µM (NCI-H322M): 64.8%; growth, % of control at 10 µM (RPMI-8226): -0.63%; growth, % of control at 10 µM (HL-60(TB)): 21.5%; growth, % of control at 10 µM (HOP-62): 71%; growth, % of control at 10 µM [5]: 65.7%; growth, % of control at 10 µM (DU-145): 68.4%; growth, % of control at 10 µM (MDA-MB-468): 51.9%; growth, % of control at 10 µM (K562): 14.4%; growth, % of control at 10 µM [6]: 51.9%"
COc1ccc(/C=C/c2ccc(/C=C/C(=O)c3ccc(Cl)cc3)cc2)cc1,97.2,96.5,95,105,103,96.3,102,115,89.5,83.4,117,111,101,91,107,101,109,101,108,109,"growth, % of control at 10 µM (SNB-75): 100%; growth, % of control at 10 µM (NCI-H322M): 97%; growth, % of control at 10 µM (RPMI-8226): 99.2%; growth, % of control at 10 µM (HL-60(TB)): 92.2%; growth, % of control at 10 µM (HOP-62): 105%; growth, % of control at 10 µM [5]: 102%; growth, % of control at 10 µM (DU-145): 103%; growth, % of control at 10 µM (MDA-MB-468): 113%; growth, % of control at 10 µM (K562): 87.3%; growth, % of control at 10 µM [6]: 98.5%"
COc1ccc(C(=O)/C=C/c2ccc(/C=C/c3ccc(Cl)cc3)cc2)cc1,97.7,96.5,105,92.7,87.4,100,96.6,116,93,81.6,103,107,100,94,106,90.1,104,102,98.7,99.9,"growth, % of control at 10 µM (IGROV-1): 95.7%; growth, % of control at 10 µM (SNB-75): 97.2%; growth, % of control at 10 µM (NCI-H322M): 76.6%; growth, % of control at 10 µM (RPMI-8226): 102%; growth, % of control at 10 µM (HL-60(TB)): 94.4%; growth, % of control at 10 µM (HOP-62): 101%; growth, % of control at 10 µM [5]: 107%; growth, % of control at 10 µM (DU-145): 108%; growth, % of control at 10 µM (MDA-MB-468): 110%; growth, % of control at 10 µM (K562): 87.8%; growth, % of control at 10 µM [6]: 102%"
COc1ccc(C(=O)/C=C/c2ccc(/C=C/c3ccc(F)cc3)cc2)cc1,104,113,97.4,104,99.9,104,102,117,93.9,93.8,116,107,101,95.3,104,102,106,104,106,108,"growth, % of control at 10 µM (IGROV-1): 112%; growth, % of control at 10 µM (SNB-75): 104%; growth, % of control at 10 µM (NCI-H322M): 99.6%; growth, % of control at 10 µM (RPMI-8226): 104%; growth, % of control at 10 µM (HL-60(TB)): 101%; growth, % of control at 10 µM (HOP-62): 120%; growth, % of control at 10 µM [5]: 115%; growth, % of control at 10 µM (DU-145): 109%; growth, % of control at 10 µM (MDA-MB-468): 112%; growth, % of control at 10 µM (K562): 86.3%; growth, % of control at 10 µM [6]: 108%"

# — ChEMBL document CHEMBL3132854, “Synthesis and anticancer activity evaluation of resveratrolchalcone conjugates” (2014)
